Laboratory results reported in ChEMBL document CHEMBL1201861, “Genomics of Drug Sensitity in Cancer screening data, Wellcome Trust Sanger Institute”.
Where a SMILES comes first, the peptide text is derived from it. The star is where a group is joined. Cbz = O=C(OCc1ccccc1)*

Tests used:
Assay type in all cases: functional, cell-based
CP67-MEL = experiment: SANGER: Inhibition of human CP67-MEL cell growth in a cell viability assay.
KP-N-RT-BM-1 = experiment: SANGER: Inhibition of human KP-N-RT-BM-1 cell growth in a cell viability assay.
NCI-H128 = experiment: SANGER: Inhibition of human NCI-H128 cell growth in a cell viability assay.
TC-YIK = experiment: SANGER: Inhibition of human TC-YIK cell growth in a cell viability assay.
ECC12 = experiment: cells; settings: Homo sapiens
Description: SANGER: Inhibition of human ECC12 cell growth in a cell viability assay.

Caov-3 cell line = experiment: cells; settings: Homo sapiens
Description: SANGER: Inhibition of human Caov-3 cell growth in a cell viability assay.

DV-90 = experiment: cells; settings: Homo sapiens
Description: SANGER: Inhibition of human DV-90 cell growth in a cell viability assay.

EFE-184 = experiment: cells; settings: Homo sapiens
Description: SANGER: Inhibition of human EFE-184 cell growth in a cell viability assay.

EW-7 = experiment: SANGER: Inhibition of human EW-7 cell growth in a cell viability assay.
MDA-MB-468 = experiment: cells; settings: Homo sapiens
Description: SANGER: Inhibition of human MDA-MB-468 cell growth in a cell viability assay.

MES-SA = experiment: cells; settings: Homo sapiens
Description: SANGER: Inhibition of human MES-SA cell growth in a cell viability assay.

MFE-296 = experiment: SANGER: Inhibition of human MFE-296 cell growth in a cell viability assay.
NCI-H1618 = experiment: cells; settings: Homo sapiens
Description: SANGER: Inhibition of human NCI-H1618 cell growth in a cell viability assay.

NCI-H838 = experiment: cells; settings: Homo sapiens
Description: SANGER: Inhibition of human NCI-H838 cell growth in a cell viability assay.

SK-CO-1 = experiment: cells; settings: Homo sapiens
Description: SANGER: Inhibition of human SK-CO-1 cell growth in a cell viability assay.

SNG-M = experiment: cells; settings: Homo sapiens
Description: SANGER: Inhibition of human SNG-M cell growth in a cell viability assay.

SNU-475 = experiment: cells; settings: Homo sapiens
Description: SANGER: Inhibition of human SNU-475 cell growth in a cell viability assay.

TT = experiment: cells; settings: Homo sapiens
Description: SANGER: Inhibition of human TT cell growth in a cell viability assay.

CCF-STTG1 = experiment: cells; settings: Homo sapiens
Description: SANGER: Inhibition of human CCF-STTG1 cell growth in a cell viability assay.

COLO 205 = experiment: cells; settings: Homo sapiens
Description: SANGER: Inhibition of human COLO-205 cell growth in a cell viability assay.

NCI-H2107 = experiment: SANGER: Inhibition of human NCI-H2107 cell growth in a cell viability assay.
D-423MG = experiment: cells; settings: Homo sapiens
Description: SANGER: Inhibition of human D-423MG cell growth in a cell viability assay.

D-566MG = experiment: cells; settings: Homo sapiens
EPLC-272H = experiment: cells; settings: Homo sapiens
Description: SANGER: Inhibition of human EPLC-272H cell growth in a cell viability assay.

KNS-62 = experiment: cells; settings: Homo sapiens
Description: SANGER: Inhibition of human KNS-62 cell growth in a cell viability assay.

NBsusSR = experiment: cells; settings: Homo sapiens
Description: SANGER: Inhibition of human NBsusSR cell growth in a cell viability assay.

NCI-H1048 = experiment: cells; settings: Homo sapiens
Description: SANGER: Inhibition of human NCI-H1048 cell growth in a cell viability assay.

NCI-H1666 = experiment: cells; settings: Homo sapiens
Description: SANGER: Inhibition of human NCI-H1666 cell growth in a cell viability assay.

NCI-H2029 = experiment: cells; settings: Homo sapiens
Description: SANGER: Inhibition of human NCI-H2029 cell growth in a cell viability assay.

NCI-H2291 = experiment: cells; settings: Homo sapiens
Description: SANGER: Inhibition of human NCI-H2291 cell growth in a cell viability assay.

RH-18 = experiment: cells; settings: Homo sapiens, Rh18
Description: SANGER: Inhibition of human RH-18 cell growth in a cell viability assay.

SW 1116 = experiment: cells; settings: Homo sapiens
Description: SANGER: Inhibition of human SW1116 cell growth in a cell viability assay.

A549 = experiment: cells; settings: Homo sapiens
Description: SANGER: Inhibition of human A549 cell growth in a cell viability assay.

BALL-1 = experiment: cells; settings: Homo sapiens
Description: SANGER: Inhibition of human BALL-1 cell growth in a cell viability assay.

YH-13 = experiment: cells; settings: Homo sapiens
Description: SANGER: Inhibition of human YH-13 cell growth in a cell viability assay.

ZR-75-30 = experiment: cells; settings: Homo sapiens
Description: SANGER: Inhibition of human ZR-75-30 cell growth in a cell viability assay.

CFPAC-1 = experiment: cells; settings: Homo sapiens
Description: SANGER: Inhibition of human CFPAC-1 cell growth in a cell viability assay.

## C[C@@H](Oc1cc(-c2cnn(C3CCNCC3)c2)cnc1N)c1c(Cl)ccc(F)c1Cl [CRIZOTINIB]
CP67-MEL
  IC50: > 2000 nM
KP-N-RT-BM-1
  IC50: > 2000 nM
NCI-H128; Homo sapiens, NCI-H128
  IC50: > 2000 nM
TC-YIK
  IC50: > 2000 nM

## CC(C)C[C@H](NC(=O)[C@H](Cc1ccccc1)NC(=O)c1cnccn1)B(O)O [BORTEZOMIB]
ECC12
  IC50: 1.37 nM
NCI-H128; Homo sapiens, NCI-H128
  IC50: > 20 nM
TC-YIK
  IC50: > 20 nM

## C/C(=C\c1csc(C)n1)[C@@H]1C[C@@H]2O[C@]2(C)CCC[C@H](C)[C@H](O)[C@@H](C)C(=O)C(C)(C)[C@@H](O)CC(=O)O1 [PATUPILONE]
Caov-3 cell line
  IC50: 0.0139 µM
DV-90
  IC50: 0.0146 µM
EFE-184
  IC50: > 0.032 µM
EW-7
  IC50: 2.25 nM
MDA-MB-468
  IC50: 0.00175 µM
MES-SA
  IC50: 1.98 nM
MFE-296
  IC50: 0.00268 µM
NCI-H1618
  IC50: 0.00762 µM
NCI-H838
  IC50: 0.0118 µM
SK-CO-1
  IC50: 0.00913 µM
SNG-M
  IC50: 0.000571 µM
SNU-475
  IC50: > 0.032 µM
TT
  IC50: > 0.032 µM
CCF-STTG1
  IC50: 0.00583 µM
COLO 205
  IC50: 0.802 nM

## COc1ccc(-c2cc3nccn3c(Nc3ncccc3C(N)=O)n2)cc1OC
Caov-3 cell line
  IC50: > 8 µM
DV-90
  IC50: > 8 µM
EFE-184
  IC50: > 8 µM
EW-7
  IC50: 1980 nM
MDA-MB-468
  IC50: > 8 µM
MES-SA
  IC50: 960 nM
MFE-296
  IC50: > 8 µM
NCI-H1618
  IC50: > 8 µM
NCI-H838
  IC50: > 8 µM
SK-CO-1
  IC50: > 8 µM
SNG-M
  IC50: 2.26 µM
SNU-475
  IC50: > 8 µM
TT
  IC50: > 8 µM
CCF-STTG1
  IC50: 7.24 µM
COLO 205
  IC50: 2350 nM

## C=CC(=O)N1CCCC(Nc2nc(Nc3ccc(N(C)C(=O)CC)cc3)nc3[nH]cnc23)C1 (stereo not drawn)
CP67-MEL
  IC50: > 10200 nM
KP-N-RT-BM-1
  IC50: > 10200 nM
NCI-H128; Homo sapiens, NCI-H128
  IC50: > 10200 nM
NCI-H2107
  IC50: > 10.2 µM

## NC(=O)c1cccc(-c2cc(Nc3ccc(OC(F)(F)F)cc3)ncn2)c1
CP67-MEL
  IC50: > 1280 nM
KP-N-RT-BM-1
  IC50: > 1280 nM
NCI-H128; Homo sapiens, NCI-H128
  IC50: > 1280 nM
NCI-H2107
  IC50: > 1.28 µM

## COc1cc(N2CCC(N3CCN(C)CC3)CC2)ccc1Nc1ncc(Cl)c(Nc2ccccc2S(=O)(=O)C(C)C)n1 [TAE-684]
CP67-MEL
  IC50: > 2000 nM
KP-N-RT-BM-1
  IC50: 331 nM
NCI-H128; Homo sapiens, NCI-H128
  IC50: > 2000 nM
TC-YIK
  IC50: > 2000 nM

## Cc1cc(N2CCOCC2)cc2[nH]c(-c3c(NC[C@@H](O)c4cccc(Cl)c4)cc[nH]c3=O)nc12
CP67-MEL
  IC50: 898 nM
KP-N-RT-BM-1
  IC50: 1440 nM
NCI-H128; Homo sapiens, NCI-H128
  IC50: > 5120 nM
NCI-H2107
  IC50: > 5.12 µM

## CN(C)CCOc1ccc(-c2nc(-c3ccncc3)c(-c3ccc4c(c3)CC/C4=N\O)[nH]2)cc1 [SB590885]
D-423MG
  IC50: > 5000 nM
D-566MG
  IC50: > 5000 nM
EPLC-272H
  IC50: > 5000 nM
KNS-62
  IC50: > 5 µM
NBsusSR
  IC50: > 5000 nM
NCI-H1048
  IC50: > 5000 nM
NCI-H1666
  IC50: > 5000 nM
NCI-H2029
  IC50: > 5 µM
NCI-H2291
  IC50: > 5 µM
RH-18
  IC50: > 5 µM
SW 1116
  IC50: > 5 µM
A549
  IC50: > 5000 nM
BALL-1
  IC50: > 5 µM
YH-13
  IC50: > 5000 nM
ZR-75-30
  IC50: > 5 µM
CFPAC-1
  IC50: > 5000 nM

## CS(=O)(=O)N1CCN(Cc2cc3nc(-c4cccc5[nH]ncc45)nc(N4CCOCC4)c3s2)CC1 [PICTILISIB]
D-423MG
  IC50: 1100 nM
D-566MG
  IC50: 1630 nM
EPLC-272H
  IC50: 687 nM
KNS-62
  IC50: 3.92 µM
NBsusSR
  IC50: 489 nM
NCI-H1048
  IC50: 2110 nM
NCI-H1666
  IC50: 2510 nM
NCI-H2029
  IC50: > 4 µM
NCI-H2291
  IC50: > 4 µM
RH-18
  IC50: > 4 µM
SW 1116
  IC50: > 4 µM
A549
  IC50: 1400 nM
BALL-1
  IC50: > 4 µM
YH-13
  IC50: 304 nM
ZR-75-30
  IC50: > 4 µM
CFPAC-1
  IC50: > 4000 nM

## NC(=O)Nc1cc(-c2cccc(F)c2)sc1C(=O)N[C@H]1CCCNC1 [AZD-7762]
D-423MG
  IC50: 331 nM
D-566MG
  IC50: 147 nM
EPLC-272H
  IC50: 221 nM
KNS-62
  IC50: 0.566 µM
NBsusSR
  IC50: 318 nM
NCI-H1048
  IC50: 919 nM
NCI-H1666
  IC50: > 2000 nM
NCI-H2029
  IC50: > 2 µM
NCI-H2291
  IC50: > 2 µM
RH-18
  IC50: > 2 µM
SW 1116
  IC50: > 2 µM
A549
  IC50: 1490 nM
BALL-1
  IC50: > 2 µM
YH-13
  IC50: 157 nM
ZR-75-30
  IC50: > 2 µM
CFPAC-1
  IC50: 723 nM

## COc1ccc(N(C(=O)Oc2c(C)cccc2C)c2ccnc(Nc3ccc(N4CCN(C)CC4)cc3)n2)c(OC)c1
CP67-MEL
  IC50: > 5120 nM
KP-N-RT-BM-1
  IC50: > 5120 nM
NCI-H128; Homo sapiens, NCI-H128
  IC50: > 5120 nM
NCI-H2107
  IC50: > 5.12 µM

## CCCCCCCCCCCC1=C(O)C(=O)C=C(O)C1=O [EMBELIN]
Caov-3 cell line
  IC50: > 32 µM
DV-90
  IC50: 29.9 µM
EFE-184
  IC50: 26.1 µM
EW-7
  IC50: 23200 nM
MDA-MB-468
  IC50: > 32 µM
MES-SA
  IC50: 16500 nM
MFE-296
  IC50: 14.4 µM
NCI-H1618
  IC50: > 32 µM
NCI-H838
  IC50: > 32 µM
SK-CO-1
  IC50: 13.6 µM
SNG-M
  IC50: 7.05 µM
SNU-475
  IC50: > 32 µM
TT
  IC50: 23.5 µM
CCF-STTG1
  IC50: 14 µM
COLO 205
  IC50: 3870 nM

## CC(C)C[C@@H](C=O)NC(=O)[C@H](CC(C)C)NC(=O)[C@H](CC(C)C)NC(=O)OCc1ccccc1 [MG-132] (Cbz-Leu-Leu-Leu-aldehyde)
CP67-MEL
  IC50: 267 nM
ECC12
  IC50: > 1000 nM
KP-N-RT-BM-1
  IC50: > 1000 nM
NCI-H128; nci-h128
  IC50: > 1000 nM
NCI-H2107
  IC50: > 1 µM
TC-YIK
  IC50: > 1000 nM

## OC[C@H](Cc1ccccc1)Nc1nc(Oc2ccc3c(c2)CCC3)nc2c1ncn2Cc1ccc(-c2ccccc2)cc1
Caov-3 cell line
  IC50: > 10.2 µM
DV-90
  IC50: > 10.2 µM
EFE-184
  IC50: > 10.2 µM
EW-7
  IC50: > 10200 nM
MDA-MB-468
  IC50: > 10.2 µM
MES-SA
  IC50: > 10200 nM
MFE-296
  IC50: > 10.2 µM
NCI-H1618
  IC50: > 10.2 µM
NCI-H838
  IC50: > 10.2 µM
SK-CO-1
  IC50: > 10.2 µM
SNG-M
  IC50: 5.93 µM
SNU-475
  IC50: > 10.2 µM
TT
  IC50: > 10.2 µM
CCF-STTG1
  IC50: > 10.2 µM
COLO 205
  IC50: 2290 nM

## CO[C@@H]1[C@H](N(C)C(=O)c2ccccc2)C[C@H]2O[C@]1(C)n1c3ccccc3c3c4c(c5c6ccccc6n2c5c31)C(=O)NC4 [MIDOSTAURIN]
EW-7
  IC50: > 512 nM
MFE-296
  IC50: > 0.512 µM
